Test results: US6548307B2, “Determination of logP coefficients via a RP-HPLC column” (Pfizer Inc., priority 2000, dated 2003)
Read-outs that look alike come from different tables or passages of the source.

Columns and labels:
physchem = details: for log k′2 (capacity factor extrapolated to 0% methanol): Average of at least three determinations on different LC-ABZ columns, 20 mM MOPS pH 7.4/methanol with octanol; for Residual: logPoct minus ElogPoct
Method: The mobile phase consisted, in all cases, of 20 mM MOPS buffer at pH 7.4, and methanol in varying proportions from 70 to 15% v/v. […] The capacity factors data (k′=(tR−t0)/t0) obtained at various amounts of methanol were then extrapolated to 0% methanol and reported as log k′w, using a linear procedure. […] Injections of pure methanol were used to determine t0, i.e. the dead time, while tR has the usual meaning of the retention time for the analyte.
All the chromatographic runs were performed on a HP-1100 HPLC ChemStation at the ambient temperature. The columns used were Supelcosil LC-ABZ, 5μm, 4.6×50 mm. […] Columns having different silica bond lots were tested to ensure reproducibility. Samples were dissolved in 1:1 methanol/water at a concentration of 10-30 μg/mL. The flow rate was 0.5, 1 or 2 mL/min, depending on the lipophilicity range. Three lipophilicity ranges were established using, in all cases, three points for the extrapolation to k′w, as described in the table below.
The samples were placed in the appropriate range by estimating their lipophilicity via computed values, or by prior experience with a given class. In each case the entire group of samples was run before the column is equilibrated to the next condition, in an automated fashion, and the initial estimation need not be very accurate. The data analysis was automated via in-house software yielding the ElogPoct values, directly from the chromatographic data files.

[1] = Shake-flask data from literature references; cited from earlier work
[2] = Shake-flask octanol/buffer partition coefficient (logPoct); assay type: physicochemical; details: Shake-flask data, this work (in-house, octanol/MOPS buffer, overnight shaking)
From the text: The shake-flask logPoct data were taken from the literature or determined in-house, except when data were not available or could not be determined experimentally due to the high lipophilicity of the compound. In such cases a computed value was used. The shake-vial experimental measurements performed in-house were all conducted at least in duplicate, in amber glass vials and, in some cases, with varying ratios of octanol and MOPS buffer, mutually pre-saturated prior to the experiment. Overnight shaking was used. HPLC analysis at different wavelengths, after centrifugation and separation of the phases, was used for the quantitative analysis, using both phases.

[3] = Data from Equation 3 (from log k′w)

Compound | chromatographic logP (physchem) | log k′2 (capacity factor extrapolated to 0% methanol) (physchem) | Residual (physchem) | logPoct [1] | ElogPoct (physchem; pH 7.4) | ElogPoct (physchem; [3]) | logPoct [2]
NC(=O)N1c2ccccc2C=Cc2ccccc21 [Carbamazepine] | 2.02 | 1.70 | 0.17 | 2.19 | – | – | –
C[C@@H]1C[C@H]2[C@@H]3CCC4=CC(=O)C=C[C@]4(C)[C@@]3(F)[C@@H](O)C[C@]2(C)[C@@]1(O)C(=O)CO [Dexamethasone] | 2.39 | – | – | 1.83 | – | – | –
C[C@]12CC[C@@H]3c4ccc(O)cc4CC[C@H]3[C@@H]1CC[C@@H]2O [Estradiol] | 3.84 | – | – | – | – | – | –
C[C@]12C=CC(=O)C=C1CC[C@@H]1[C@@H]2[C@@H](O)C[C@@]2(C)[C@H]1CC[C@]2(O)C(=O)CO [Prednisolone] | 1.84 | 1.54 | −0.24 | – | – | – | –
Oc1ncnc2[nH]ncc12 [Allopurinol] | – | −0.89 | 0.30 | −0.55 | −0.85 | – | –
O=C1Nc2ccc(Cl)cc2C(c2ccccc2Cl)=NC1O (centres unmarked) [Lorazepam] | 2.75 | 2.36 | −0.24 | – | – | – | –
C[C@]12CC[C@H]3[C@@H](CCC4=CC(=O)CC[C@@]43C)[C@@H]1CC[C@@H]2O [Testosterone] | – | 2.74 | 0.12 | 3.29 | – | 3.17 | –
CS(=O)(=O)c1ccc([C@@H](O)[C@@H](CO)NC(=O)C(Cl)Cl)cc1 [Thiamphenicol] | – | −0.24 | −0.14 | −0.27 | −0.13 | – | –
CC/C(=C(/CC)c1ccc(O)cc1)c1ccc(O)cc1 [Diethylstilbestrol] | 4.75 | 4.16 | 0.32 | 5.07 | – | – | –
Oc1cc(Cl)cc(Cl)c1 [3,5-Dichlorophenol] | 3.91 | 3.40 | −0.23 | 3.68 | – | – | –
CC(=O)CCCCn1c(=O)c2c(ncn2C)n(C)c1=O [Pentoxifylline] | 0.31 | 0.16 | −0.02 | 0.29 | – | – | –
O=[N+]([O-])c1ccc(/C=N/O)o1 [Nifuroxime] | 1.36 | 1.11 | −0.08 | – | – | – | 1.28
c1ccc2ccccc2c1 [Naphthalene] | 3.53 | 3.06 | −0.16 | – | – | – | –
CSc1ncnc2c1ncn2[C@@H]1O[C@H](CO)[C@@H](O)[C@H]1O [Methylthiolnosine] | – | 0.19 | −0.25 | – | – | 0.34 | 0.09
c1ccc2ncccc2c1 [Quinoline] | 1.86 | 1.56 | 0.17 | – | – | – | –
CN1C(=O)C(O)N=C(c2ccccc2Cl)c2cc(Cl)ccc21 (centres unmarked) [Lormetazepam] | 2.8 | 2.40 | −0.08 | 2.72 | – | – | –
Cc1cccc(N(C)C(=S)Oc2ccc3ccccc3c2)c1 [Tolnaftate] | 5.18 | 4.55 | 0.22 | – | – | – | –
Oc1cccc(Cl)c1 [3-Clorophenol] | – | 2.49 | −0.40 | – | – | – | –
O=C1CN=C(c2ccccn2)c2cc(Br)ccc2N1 [Bromazepam] | 1.39 | 1.13 | 0.26 | 1.65 | – | – | –
NC(=O)N/N=C/c1ccc([N+](=O)[O-])o1 [Nitrofurazone] | 0.24 | 0.10 | −0.01 | 0.23 | – | – | –
COC1=CC(=O)C[C@@H](C)[C@]12Oc1c(Cl)c(OC)cc(OC)c1C2=O [Griseofulvin] | 2.59 | 2.21 | −0.41 | 2.18 | – | – | –
Brc1cnc2ccccc2c1 [3-Bromoquinoline] | 2.95 | 2.54 | 0.08 | 3.03 | – | – | –
Cc1ncc([N+](=O)[O-])n1CCO [Metronidazole] | – | −0.32 | 0.20 | −0.02 | −0.22 | – | –
CC(=O)c1ccccc1 [Acetophenone] | 1.59 | 1.31 | −0.01 | – | – | – | –
C[C@]12C=CC(=O)C=C1CC[C@@H]1[C@@H]2C(=O)C[C@@]2(C)[C@H]1CC[C@]2(O)C(=O)CO [Prednisone] | – | 1.21 | −0.02 | – | – | – | –
c1ccc(-c2ccc(C(c3ccccc3)n3ccnc3)cc2)cc1 (centres unmarked) [Bifonazole] | 4.98 | 4.37 | −0.21 | 4.77 | – | – | –
CC(=O)OCC(=O)[C@@]1(O)CC[C@H]2[C@@H]3CCC4=CC(=O)CC[C@]4(C)[C@H]3[C@@H](O)C[C@@]21C [Hydrocortisone-21-acetate] | – | 1.93 | −0.08 | – | – | 2.27 | –
CC(=O)Nc1ccc(O)cc1 [Acetaminophen] | 0.11 | −0.02 | 0.40 | – | – | – | –
